By inhibition is commonly meant the change of the read-out against control, counted positive when it falls. As usually defined, the solubility is the concentration that dissolves in the medium under given conditions. A high value points to much dissolved substance.

Structures are written as SMILES.

One data set has as its system Orexin-A-induced rats. The experiment in a line: Locomotor activity test using Orexin-A-induced rats. In kind it is in vivo. Particulars: rat. On the procedure:
The male SD rats described in Experimental Example 2 were used.
From the day before drug administration, the animals were acclimated to a locomotor activity measurement apparatus (Muromachi Kikai Co., Ltd.). Solvent (0.5% (w/v) methyl cellulose solution) and the compound (30 mg/kg) of Example 1 or the compound (30 mg/kg) of Example 2 were subcutaneously administered 30 min before administration of saline or Orexin-A (1 nmol). The locomotor activity was quantified for 30 min to 90 min after the cerebral ventricular administration of Orexin-A. A comparison with saline+solvent administration group was tested by Student's t-test (*p≤0.05). A comparison with Orexin-A+solvent administration group was tested by Dunnett's test (#p≤0.05).

For another data set, the target named is T1, human OX1 receptor (Homo sapiens, UniProt O43613).
T1 construct: expressed in transfected cells; host or cells: CHO cells
T1 sequence (O43613 1-425): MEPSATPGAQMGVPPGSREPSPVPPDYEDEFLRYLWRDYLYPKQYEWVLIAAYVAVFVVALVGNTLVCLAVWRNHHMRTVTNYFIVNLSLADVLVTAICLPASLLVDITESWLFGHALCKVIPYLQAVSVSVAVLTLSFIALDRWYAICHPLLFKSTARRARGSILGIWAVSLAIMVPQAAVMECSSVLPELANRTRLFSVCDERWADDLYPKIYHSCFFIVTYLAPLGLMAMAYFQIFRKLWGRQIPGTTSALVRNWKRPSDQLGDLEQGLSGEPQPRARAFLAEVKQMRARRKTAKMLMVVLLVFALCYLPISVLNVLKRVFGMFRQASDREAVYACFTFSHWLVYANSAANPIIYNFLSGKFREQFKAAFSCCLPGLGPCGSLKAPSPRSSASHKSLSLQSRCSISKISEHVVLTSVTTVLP
Put plainly: Measurement of orexin receptor antagonistic activity (calcium fluorescence, FLIPRtetra). It counts as cell-based. Particulars: 10 μM test compound, CHO cells expressing human OX1 receptor, OX-A 1 nM. In outline: (§1)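 Calcium fluorescence measured by FLIPRtetra every second for 2 min after orexin-A challenge, 1 nM final for OX1 and 0.3 nM final for OX2. Receptor-expressing CHO cells received compound in HEPES-buffered HBSS with 0.1% BSA just before agonist.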

A further data set concerns the target T2, human OX2 receptor (Homo sapiens, UniProt O43614).
T2 construct: expressed in transfected cells; host or cells: CHO cells
T2 sequence (O43614 1-444): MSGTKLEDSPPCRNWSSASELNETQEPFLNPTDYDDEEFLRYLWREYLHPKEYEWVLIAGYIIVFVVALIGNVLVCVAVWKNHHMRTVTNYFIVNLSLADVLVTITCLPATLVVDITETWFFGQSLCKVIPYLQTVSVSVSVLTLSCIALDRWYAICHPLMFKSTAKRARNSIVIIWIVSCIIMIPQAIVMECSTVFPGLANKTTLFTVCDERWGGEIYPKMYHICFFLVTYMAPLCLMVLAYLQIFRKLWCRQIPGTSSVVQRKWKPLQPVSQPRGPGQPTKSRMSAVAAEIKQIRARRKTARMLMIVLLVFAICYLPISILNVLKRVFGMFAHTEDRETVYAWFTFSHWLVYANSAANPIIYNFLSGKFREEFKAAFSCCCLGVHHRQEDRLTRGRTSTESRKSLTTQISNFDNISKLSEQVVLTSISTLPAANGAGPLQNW
Described as above. In kind it is cell-based. Particulars: CHO, 10 μM test compound; CHO cells expressing human OX2 receptor; OX-A 0.3 nM; read-out: Human Orexin2 receptor inhibition (at 10 μM). In outline: as §1

The nature of data set [1]: Measurement of solubility. Particulars: aqueous buffer, thermodynamic from solid; Britton-Robinson's Buffer pH 3, 37° C., shaking 2 hr; crystals from n-heptane suspension. It counts as physicochemical. The method, then: n-Heptane was added to the compounds of Examples 1, 2 and 102 at 40 mg/mL, respectively, and the mixtures were continued to be stirred at room temperature in a suspended state. After 3 to 7 days, the mixtures were filtered, and the obtained crystals as a sample were subjected to powder X-ray diffraction measurement (measurement condition: mentioned above) and solubility measurement.

A further data set deals with Male SD rats. The experiment in a line: Effect on sleep in rat (brain wave measurement). It counts as in vivo. On the procedure: Male SD rats were purchased from Charles River Laboratories Japan, Inc. They were used for an experiment after an acclimation period of at least one week after carrying them in the animal experimental facility. They were bred in the animal experimental facility with environment in which 12-hours light-dark cycle was performed, humidity and temperature were controlled, and free water drinking and feeding were allowed.
Electrodes for brain wave measurement were implanted in rat cortex, muscle electrodes were implanted in rat cervical muscle, and a transmitter was implanted under rat back skin. Rats in which chronic electrodes were implanted were fully acclimated to a box for brain wave measurement, and then the brain wave measurement was performed. The brain wave data was obtained using Dataquest ART manufactured by Data Sciences International. For analysis, wakefulness, non-REM sleep and REM sleep were automatically determined using Sleep Sign which is a program for sleep analysis study by KISSEI COMTEC Co., Ltd. The compound of Example 102 was subcutaneously administered at a dose of 3 mg/kg immediately before beginning of dark period. The sum of non-REM sleep and REM sleep 1 hr after the administration was regarded as total sleep. All data were shown as the mean+standard error. For statistical analysis, variance analysis to crossover was performed (*p ?0.05).

With `Cc1cc(N2CCN(C(=O)c3ccccc3-n3nccn3)C[C@H](C)O2)nc(C)n1` [Example 2, ((7S)-2-(2,6-dimethylpyrimidin-4-yl)-7-methyl-1,2,5-oxadiazepan-5-yl)(2-(2H-1,2,3-triazol-2-yl)phenyl)methanone], the “Locomotor activity increased by cerebral ventricular administration of Orexin-A” value in the data set with Orexin-A-induced rats (30 mg/kg subcutaneous) is “significantly decreased”. Further, the “Locomotor activity (Counts/90 min)” value in the data set with Orexin-A-induced rats (30 mg/kg subcutaneous 30 min before Orexin-A (1 nmol) cerebral ventricular administration, mean) came out at 2638 Counts/90 min. Besides, the inhibition at 10 µM at human OX1 receptor (CHO, read-out: Human Orexin1 receptor inhibition (at 10 μM)) turned out to be 68%; at human OX2 receptor it was 101%. Moreover, in data set [1], the solubility at 2 h was ≥ 5000 µg/mL.
With `Cc1cc(N2CCN(C(=O)c3cc(Cl)ccc3-n3nccn3)C[C@H](C)O2)nc(C)n1` [Example 102, (5-chloro-2-(2H-1,2,3-triazol-2-yl)phenyl)((7S)-2-(2,6-dimethylpyrimidin-4-yl)-7-methyl-1,2,5-oxadiazepan-5-yl)methanone], the “Human Orexin1 receptor inhibition (at 10 μM)” value on human OX1 receptor was 94%. In addition, at human OX2 receptor, the inhibition at 10 µM was determined as 101%. In addition, in the data set on Male SD rats (3 mg/kg subcutaneous), the “Total sleep compared with solvent control group” value was “significantly increased”. Also, the “Total sleep” value in the data set with Male SD rats (3 mg/kg subcutaneous immediately before dark period, sum of non-REM and REM sleep 1 hr after administration, mean) is listed as 33.51 min. For the same molecule, the solubility at 2 h in data set [1] is ≥ 5000 µg/mL.

For the origin of these results see US10131653B2, “Heterocyclic compound” (TAKEDA PHARMACEUTICAL COMPANY LIMITED, priority 2015, dated 2018).
